Earlier results on two compounds are cited in patent EP0731703B1, “LIPOSOMAL FORMULATIONS CONTAINING VIDARABINE OR ITS DERIVATIVES” (INSTITUTO NACIONAL DE ENGENHARIA E TECNOLOGIA …, priority 1993, dated 1995).

The conditions of this data set: literature (Schabel 1968; LePage et al. 1972).

Structures are written as SMILES.

As for `Nc1ncnc2c1ncn2[C@@H]1O[C@H](COP(=O)(O)O)[C@@H](O)[C@@H]1O` [ARA-AMP, 9-β-D--arabinofuranosyladenine monophosphate], the aqueous solubility entry is “water-soluble”.

Consider `Nc1ncnc2c1ncn2[C@@H]1O[C@H](CO)[C@@H](O)[C@@H]1O` [ARA-A, 9-β-D-arabinofuranosyladenine], for which the aqueous solubility entry was “poor aqueous solubility”.
